Test results as given in paper PMC10986598, “Investigating inhibitors of 1-deoxy-D-xylulose 5-phosphate synthase in a mouse model of UTI” (Microbiology Spectrum, 2024).
Converted amounts (≈) assume the structure as drawn.

Experiments:
DXPS = system: DXPS; set-up: method as in PMID 23326631; conditions: over other ThDP-dependent enzymes; cited from earlier work
UPEC (CFT073) = test: Antimicrobial susceptibility of UPEC (CFT073) grown in urine; type: cell-based, uropathogenic Escherichia coli
Method: Pooled human urine was filter-sterilized prior to use. Solid urine agar plates were prepared by supplementing cooled 1.5% (wt/vol) agar with filter-sterilized urine in a 4:1 ratio. OD600 measurements were performed on a Beckman DU800 UV/Visible spectrophotometer (Brea, CA, USA). MIC determination data were collected from bacteria in 96-well plates (Nunc Edge 96-Well, Non-Treated, Flat-Bottom Microplate) incubated and read on a Biotek Epoch 2 microplate reader. Uropathogenic E. coli strain CFT073 (ATCC: BAA-2503) was obtained from the lab of Rodney Welch ([58]). All microbial manipulation of pathogenic bacteria was conducted in a certified biosafety level 2 laboratory following all associated safety protocols. A hand-held tissue homogenizer (purchased from IKA, T10 basic S001, 3737001) was used to homogenize mouse bladders for bacterial enumeration.
UPEC (CFT073) cells from frozen glycerol stocks were streaked onto urine agar plates and grown for 48 h at 37°C. Three to five isolated colonies were inoculated into filter-sterilized urine supplemented with FeSO4 (20 µM), and the cultures were grown overnight with shaking at 37°C. The saturated cultures were subcultured (1:50) in fresh urine supplemented with FeSO4 (20 µM) and grown to exponential phase (OD600 ~ 0.25). Cultures at exponential phase were diluted 1:1,000 into fresh urine supplemented with FeSO4 (20 µM) to yield the experimental inoculum which was mixed 1:1 with urine containing pro-hpAP at 2 × the desired final concentration (0–10 µM). The final concentration of bacteria in each well was ~10^5 CFU/mL in a volume of 200 µL. Colony counts of the experimental inoculum were independently verified by dilution and enumeration on LB agar, grown for 16 h at 37°C, to confirm consistency between experiments. The 96-well plates were incubated at 37°C for 16 h with intermittent shaking. Fractional growth of cells treated with pro-hpAP was determined at 8 h relative to the no drug control. MIC determination was performed in biological triplicate.

SMILES	selectivity for DXPS (DXPS)	MIC (UPEC (CFT073); Escherichia coli, UPEC CFT073 in urine, read-out: MIC (growth suppressed >90%)) [µM]	reduction in fractional growth (UPEC (CFT073); UPEC CFT073 in urine, at 630 nM pro-hpAP, 8 h) [%]	higher potency than BAP (MIC in urine) (UPEC (CFT073); UPEC in urine, relative to BAP) [fold]
CCCCOP(=O)(O)C(C)=O [BAP, butyl acetylphosphonate]	selective for DXPS over other ThDP-dependent enzymes			
C#CCCOP(=O)(O)C(=C)NC(=O)C(CC(C)C)NC(=O)CN (stereo not shown) [pro-hpAP]		5 (≈ 1.73 µg/mL)	> 70	250
